Where two headings read alike, the source gives them in different places.
Assays:
[1] = test system: human H5N1 isolate A/Thailand/KAN-1/2004; assay type: cell-based, influenza A virus
JNK, p38 and ERK [2] = details: cited from earlier work
[3] = test system: A/FPV/Bratislava/79 (H7N7)
JNK, p38 and ERK [4] = test system: JNK, p38 and ERK
[5] = test system: poly-ADP-ribose polymerase (PARP)
[6] = test system: viral proteins M1, NP, NS1 and PB1
[7] = test system: viral ribonucleoprotein complexes (RNP)
IP10 = details: mouse, in vivo
IFN-gamma = details: mouse, in vivo
[8] = human, in vivo

Compound: CC(=O)Oc1ccccc1C(=O)O [acetylsalicylic acid, reference compound]
- inhibition of virus titers [1]: efficient inhibition of the virus titers of the H5N1 strain by several decimal powers
- virus-induced activation of JNK, p38 and ERK (JNK, p38 and ERK [2]): is not inhibited

Compound: lysine-glycine-acetylsalicylate [LG-acetylsalicylate]
- inhibition of virus titers [1]: efficient inhibition of the virus titers of the H5N1 strain by several decimal powers
- inhibition of virus multiplication (virus titers versus time) [3]: equally efficiently inhibits the virus multiplication
- reduction of replication (H7N1 virus (FPV)): more than 99%
- reduction of replication (H5N1 virus (MB1)): more than 99%
- virus-induced activation of JNK, p38 and ERK (JNK, p38 and ERK [4]): is not blocked
- band of the cleaved PARP (caspase activation) [5]: efficiently reduced
- accumulation of the viral proteins M1, NP, NS1 and PB1 [6]: is not inhibited
- retention of viral RNP complexes [7]: efficient retention of viral RNP complexes
- reduction of IP10 m-RNA expression (IP10; ip): 26%
- reduction of IP10 m-RNA expression (IP10; iv): 62%
- reduction of IFN-gamma m-RNA expression (IFN-gamma; ip): 50%
- reduction of IFN-gamma m-RNA expression (IFN-gamma; iv): 68%
- improvement of the symptoms, all other patients [8]: improvement of the symptoms occurred on the 3rd day
- improvement of the symptoms, first day after the administration [8]: significant improvement of the symptoms
